This experiment has as its target T1, recombinant human GR (Homo sapiens, UniProt P04150).
T1 construct: purchased Panvera/Invitrogen P2812 (kit P2893)
T1 sequence (P04150 1-777): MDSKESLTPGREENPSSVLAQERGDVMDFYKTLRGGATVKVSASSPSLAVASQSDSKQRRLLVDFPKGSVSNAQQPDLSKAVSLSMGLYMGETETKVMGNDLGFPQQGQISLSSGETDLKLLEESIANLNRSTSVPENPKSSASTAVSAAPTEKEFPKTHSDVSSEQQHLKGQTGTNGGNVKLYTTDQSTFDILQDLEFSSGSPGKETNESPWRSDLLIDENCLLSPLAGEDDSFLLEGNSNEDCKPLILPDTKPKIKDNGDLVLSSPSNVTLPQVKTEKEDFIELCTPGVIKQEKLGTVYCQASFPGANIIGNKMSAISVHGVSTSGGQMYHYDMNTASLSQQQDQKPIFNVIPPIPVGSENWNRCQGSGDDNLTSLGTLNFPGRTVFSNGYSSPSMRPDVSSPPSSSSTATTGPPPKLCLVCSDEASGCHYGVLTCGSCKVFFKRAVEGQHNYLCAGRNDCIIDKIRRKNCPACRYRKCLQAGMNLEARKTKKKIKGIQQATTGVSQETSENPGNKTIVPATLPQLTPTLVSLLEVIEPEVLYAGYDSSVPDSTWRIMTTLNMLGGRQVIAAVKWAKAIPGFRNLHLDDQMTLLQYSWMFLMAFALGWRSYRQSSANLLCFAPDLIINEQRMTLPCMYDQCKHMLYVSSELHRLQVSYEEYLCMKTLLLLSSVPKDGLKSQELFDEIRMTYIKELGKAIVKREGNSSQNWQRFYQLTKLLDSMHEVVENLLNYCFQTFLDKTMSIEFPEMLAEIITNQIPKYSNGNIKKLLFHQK
Put plainly: Human Glucocorticoid Receptor (GR) Assay, fluorescence polarization. As to conditions: GS Red tracer, incubated 2 h at r.t., XLfit model 205, read-out: GRhuFL_FP_v2 Mean IC50. Type of experiment: binding. The method, then: Human Glucocorticoid Receptor (GR) Assay
The assay is based on a commercial kit from Panvera/Invitrogen (Part number P2893). The assay technology is fluorescence polarization. […] The GR and Stabilizing Peptide reagents are stored at −70° C. while the GS Red is stored at −20° C. Also included in the kit are 1M DTT (Panvera, Part number P2325, stored at −20° C.) and GR Screening buffer 10× (Panvera, Part number P2814, stored at −70° C. initially but once thawed stored at r.t.). Avoid repeated freeze/thaws for all reagents. The GR Screening buffer 10× comprises 100 mM potassium phosphate, 200 mM sodium molybdate, 1 mM EDTA and 20% DMSO.
0% control was 100% DMSO and 100% control was […] Dexamethasone. Background solution (8 μL; assay buffer 10×, Stabilizing Peptide, DTT and ice cold MQ water) was added to the background wells. GS Red solution (7 μL; assay buffer 10×, Stabilizing Peptide, DTT, GS Red and ice cold water) was added to all wells except background wells. GR solution (7 μL; assay buffer 10×, Stabilizing Peptide, DTT, GR and ice cold water) was added to all wells. The plate was sealed and incubated in a dark at r.t. for 2 h.
A general note: Polarisation of emitted light reports the rotation of a fluorescent probe.

Structures are written as SMILES.

What is called IC50 is the concentration at which inhibition is half-maximal.

For `Cc1ccc(F)cc1[C@@H](Oc1ccc2c(cnn2-c2ccc(F)cc2)c1)[C@H](C)NC(=O)C1(C)CC1` [Example 220, N-[(1R,2S)-1-(5-fluoro-2-methyl-phenyl)-1-[1-(4-fluorophenyl)indazol-5-yl]oxy-propan-2-yl]-1-methyl-cyclopropane-1-carboxamide], the IC50 turned out to be 4.2 nM.
In the case of `Cc1cc(C)c([C@@H](Oc2ccc3c(cnn3-c3ccc(F)cc3)c2)[C@H](C)NC(=O)C(C)(C)C)cc1C` (stereo in doubt) [Example 267, N-[(1R,2S)-1-[1-(4-fluorophenyl)indazol-5-yl]oxy-1-(2,4,5-trimethylphenyl)propan-2-yl]-2,2-dimethyl-propanamide], the IC50 was determined as 3.7 nM.
With `Cc1cnc(C(=O)N[C@@H](C)[C@H](Oc2ccc3c(cnn3-c3ccc(F)cc3)c2)c2ccc(C)c(C)c2)s1` [Example 192, N-[(1R,2S)-1-(3,4-dimethylphenyl)-1-[1-(4-fluorophenyl)indazol-5-yl]oxy-propan-2-yl]-5-methyl-1,3-thiazole-2-carboxamide], the IC50 is 4.3 nM.
Next, `C[C@H](NC(=O)C(F)(F)F)[C@H](COc1ccccc1)Oc1ccc2c(cnn2-c2ccc(F)cc2)c1` (racemic) [Example 70, 2,2,2-Trifluoro-N-[(2RS,3SR)-3-[1-(4-fluorophenyl)indazol-5-yl]oxy-4-phenoxy-butan-2-yl]acetamide]: 89 nM.
For `C[C@H](NC(=O)C1(C)CC1)[C@H](Oc1ccc2c(cnn2-c2ccc(F)cc2)c1)c1ccc(C(C)(C)C)cc1` [Example 226, N-[(1R,2S)-1-[1-(4-fluorophenyl)indazol-5-yl]oxy-1-(4-tert-butylphenyl)propan-2-yl]-1-methyl-cyclopropane-1 carboxamide], the IC50 came to 7.2 nM.
As for `C[C@H](NC(=O)C(C)(C)CO)[C@H](Oc1ccc2c(cnn2-c2ccc(F)cc2)c1)c1ccc(F)c(F)c1` [Example 251, N-[(1R,2S)-1-(3,4-difluorophenyl)-1-[1-(4-fluorophenyl)indazol-5-yl]oxy-propan-2-yl]-3-hydroxy-2,2-dimethyl-propanamide], the IC50 was found to be 5.3 nM.
On to `COC[C@H](NC(=O)c1ccco1)[C@H](Oc1ccc2c(cnn2-c2ccc(F)cc2)c1)c1cccc(F)c1` [Example 112, N-[(1S)-(2R)-(3-Fluorophenyl)-2-{[1-(4-fluorophenyl)-1H-indazol-5-yl]oxy}-1-(methoxymethyl)ethyl]furan-2-carboxamide], for which the half-maximal inhibitory concentration (IC50) was found to be 21 nM.
Take `COc1cccc([C@@H](Oc2ccc3c(cnn3-c3ccc(Cl)cc3)c2)[C@H](C)NC(=O)C(C)(F)F)c1` [Example 128, N-((1R,2S)-1-(1-(4-chlorophenyl)-1H-indazol-5-yloxy)-1-(3-methoxyphenyl)propan-2-yl)-2,2-difluoropropanamide]: the IC50 came out at 3.9 nM.
For the molecule `CC(C)C[C@H](NC(=O)C(F)(F)F)[C@H](Oc1ccc2c(cnn2-c2ccc(F)cc2)c1)c1cccc(F)c1` [Example 110, 2,2,2-Trifluoro-N-{(1S)-1-[(R)-(3-Fluorophenyl)-{[1-(4-fluorophenyl)-1H-indazole-5-yl]oxy}methyl}-3-methylbutyl}-acetamide], the IC50 was 29 nM.
Next, `CC[C@H](NC(=O)CO)[C@H](Oc1ccc2c(cnn2-c2ccc(F)cc2)c1)c1ccccc1` [Example 95, N-((1R,2S)-1-(1-(4-fluorophenyl)-1H-indazol-5-yloxy)-1-phenylbutan-2-yl)-2-hydroxyacetamide]: 3.4 nM; `Cc1cc([C@@H](Oc2ccc3c(cnn3-c3ccc(F)cc3)c2)[C@H](C)NC(=O)C(C)(C)C)ccc1Cl` [Example 191, N-[(1R,2S)-1-(4-chloro-3-methyl-phenyl)-1-[1-(4-fluorophenyl)indazol-5-yl]oxy-propan-2-yl]-2,2-dimethyl-propanamide]: 5.9 nM.
Consider `COc1cccc([C@@H](Oc2ccc3c(cnn3-c3ccc(F)cc3)c2)[C@H](C)NC(=O)c2sccc2C)c1` [Example 132, N-[(1R,2S)-1-[1-(4-fluorophenyl)indazol-5-yl]oxy-1-(3-methoxyphenyl)propan-2-yl]-3-methyl-thiophene-2-carboxamide], for which the IC50 came out at 4.1 nM.
Next, `CC(C)(C)C(=O)NC(C(Oc1ccc2c(cnn2-c2ccc(F)cc2)c1)c1ccccc1)C(F)(F)F` (single isomer, unassigned) [Example 147D1E2, N-(1,1,1-trifluoro-3-(1-(4-fluorophenyl)-1H-indazol-5-yloxy)-3-phenylpropan-2-yl)pivalamide]: 24 nM; `C[C@H](NC(=O)C(F)(F)F)[C@H](Oc1ccc2c(cnn2-c2ccc(F)cc2)c1)c1ccc(Cl)c(F)c1` [Example 170, N-[(1R,2S)-1-(4-chloro-3-fluoro-phenyl)-1-[1-(4-fluorophenyl)indazol-5-yl]oxy-propan-2-yl]-2,2,2-trifluoro-acetamide]: 7.1 nM; `COc1cccc([C@@H](Oc2ccc3c(cnn3-c3ccc(F)cc3)c2)[C@H](C)NC(=O)c2cc(C)c(C)o2)c1` [Example 286, N-[(1R,2S)-1-[1-(4-fluorophenyl)indazol-5-yl]oxy-1-(3-methoxlphenyl)propan-2-yl]-4,5-dimethyl-furan-2-carboxamide]: 4.7 nM.
For `C[C@H](NC(=O)C(F)F)[C@H](Oc1ccc2c(cnn2-c2ccc(F)cc2)c1)c1ccccc1` [Example 44, 2,2-Difluoro-N-[(1R,2S)-1-[1-(4-fluorophenyl)indazol-5-yl]oxy-1-phenyl-propan-2-yl]acetamide], the IC50 was found to be 2.7 nM.
Next, `Cc1c(F)cccc1[C@@H](Oc1ccc2c(cnn2-c2ccc(F)cc2)c1)[C@H](C)NC(=O)C(F)(F)F` [Example 167, 2,2,2-trifluoro-N-[(1R,2S)-1-(3-fluoro-2-methyl-phenyl)-1-[1-(4-fluorophenyl)indazol-5-yl]oxy-propan-2-yl]acetamide]: 8.6 nM; `Cc1cc2c(cnn2-c2ccc(F)cc2)cc1O[C@H](c1ccccc1)[C@H](C)NC(=O)C(C)(C)C` [Example 63, N-[(1R,2S)-1-[1-(4-Fluorophenyl)-6-methyl-indazol-5-yl]oxy-1-phenyl-propan-2-yl]-2,2-dimethyl-propanamide]: 4.4 nM.
On to `Cc1cc(F)ccc1[C@@H](Oc1ccc2c(cnn2-c2ccc(F)cc2)c1)[C@H](C)NC(=O)C(C)(C)F` [Example 248, 2-fluoro-N-[(1R,2S)-1-(4-fluoro-2-methyl-phenyl)-1-[1-(4-fluorophenyl)indazol-5-yl]oxy-propan-2-yl]-2-methyl-propanamide], for which the IC50 turned out to be 4.8 nM.
Next, `COc1cccc([C@@H](Oc2ccc3c(cnn3-c3ccc(F)cc3)c2)[C@H](C)NC(=O)c2ccon2)c1` [Example 280, N-[(1R,2S)-1-[1-(4-fluorophenyl)indazol-5-yl]oxy-1-(3-methoxyphenyl)propan-2-yl]1,2-oxazole-3-carboxamide]: 3.6 nM.
On to `COc1cccc([C@@H](Oc2ccc3c(cnn3-c3ccc(F)cc3)c2)[C@H](C)NC(=O)c2cnoc2C)c1` [Example 284, N-[(1R,2S)-1-[1-(4-fluorophenyl)indazol-5-yl]oxy-1-(3-methoxyphenyl)propan-2-yl]-5-methyl-1,2-oxazole-4-carboxamide], for which the IC50 worked out at 22 nM.
As for `Cc1cnc(C(=O)N[C@@H](C)[C@H](Oc2ccc3c(cnn3-c3ccc(F)cc3)c2)c2ccc(Cl)cc2)s1` [Example 204, N-[(1R,2S)-1-(4-chlorophenyl)-1-[1-(4-fluorophenyl)indazol-5-yl]oxy-propan-2-yl]-5-methyl-1,3-thiazole-2-carboxamide], the IC50 came out at 6.7 nM.
Consider `C[C@H](NC(=O)CO)[C@H](Oc1ccc2c(cnn2-c2ccc(F)cc2)c1)c1ccccc1` [Example 16, N-[(1R,2S)-1-[1-(4-fluorophenyl)indazol-5-yl]oxy-1-phenyl-propan-2-yl]-2-hydroxy-acetamide], for which the IC50 turned out to be 2.4 nM.
With `COc1cccc([C@@H](Oc2ccc3c(cnn3-c3ccc(F)cc3)c2)[C@H](C)NC(=O)c2sccc2OC)c1` [Example 292, N-[(1R,2S)-1-[1-(4-fluorophenyl)indazol-5-yl]oxy-1-(3-methoxyphenyl)propan-2-yl]-3-methoxy-thiophene-2-carboxamide], the IC50 turned out to be 5.7 nM.

Values taken from US8143290B2, “Chemical compounds 572” (AstraZeneca AB, priority 2006, dated 2012).
